Test results: patent publication US12162892B2, “CD16a binding agents and uses thereof” (KLEO PHARMACEUTICALS, INC., priority 2018, dated 2024)
Several values for one entry are separate records, joined by “and”; a condition that tells them apart may be missing. Equal values may be shown once.

How the values were obtained:
CD16a158V [1] = biological target: T1, CD16a158V (Homo sapiens, UniProt P08637, F176V); experiment: Microscale Thermophoresis; type: binding; details: read-out: MST-CD16a158V KD
Protocol: (§1) Target proteins (poly-histidine tagged, 600 nM) were fluorescently labeled combination with an equal volume of dye (200 nM, His-Tag labeling kit RED-tris-NTA NanoTemper: MO-L008) PBST. The mixture rotated in the dark for 45 min before being spun down at 12000 rpm for 15 min to remove uncomplexed material. The fluorescence of the removed supernatant was adjusted to for a test concentration of 40-80 nM (2× the final measured). Test ligands were prepared across a 12-point dilution series in a 96-well PCR plate at a volume of 20 uL at 2× the concentration desired for testing (0.2% BSA in PBST). The dilution series was then combined with an equal volume of the labeled target at 2× the concentration desired for testing. Capillaries were added to the wells of the combined target/ligand complex and measured by MST. Measurements were taken using a Nanotemper Monolith NT.115, and the data was analyzed using NanoTemper MO.Control software.

CD16a158F [2] = biological target: T2, CD16a158F (Homo sapiens, UniProt P08637); experiment: Microscale Thermophoresis; type: binding; parameters: purchased Acro Biosystems CDA-H82E8; details: read-out: MST-CD16a158F KD
Protocol: as §1

[3] = system: CD16a negative THP1 cells; experiment: ADCP assay using THP-1 cells; type: cell-based; details: beads loaded with test compound at 50 uM; 37C for 18 hrs
Protocol: (§2) Biotinylated fluorescent beads (Invitrogen, cat #P35372) were thoroughly mixed by vortexing for 1 min. Ten microliters of supplied bead suspension per treatment type were dispensed in Eppendorf tubes, and washed with 1 ml PBS […], then re-suspended in 500 uL of 1% BSA in PBS. Test compounds were added to bead suspensions to a final concentration of 50 uM, and biotinylated human IgG whole molecule (Rockland 009-0602) final concentration of 20 ug/mL.
(§3) Tubes were incubated at room temperature for 1 hr on a rocking platform.
(§4) Following incubation, beads were pelleted in a microcentrifuge at 12,000 g for 5 minutes at room temperature. Supernatants were carefully aspirated and beads were washed 5 times by resuspending in 1 ml of PBS 1% BSA, and centrifuging as described above. Finally, beads were resuspended in 500 ul of PBS 1% BSA and used in ADCP assay.
(§5) Monocytes or THP-1 cells (TIB-202 ATCC) were seeded into 96 well round bottom 96 well plates at the density of 10^5 cells per well in 200 ul, and 10 uL of fluorescent bead suspension prepared as described above was added to each well. Well contents were mixed by pipetting up and down using a multichannel pipet, and plates were incubated at 37C for 18 hrs. After incubation, well contents were transferred into flat bottom black 96 well plates (Costar #3358) and centrifuged for 2 minutes at 300 g to allow for better visualization of the cells. Images were taken using Zoe fluorescent cell imager (Biorad).

CD16a158F [4] = biological target: T2, CD16a158F; experiment: Biotinylated Ligand ELISA Assay; type: binding; parameters: purchased Acro Biosystems CDA-H82E8; details: Biotinylated CD16a protein at 10 nM
Protocol: (§6) Coat ELISA plates (Costar 3922) using Neutravidin (Thermo 31000) at 5 μg/ml (100 μl/well) for 1 hour at 37° C. Plates were washed 4 times with PBST (PBS, 0.05% Tween 20-200 μl, 1 minute/wash) then blocked using 200 μl 5% bovine serum albumin (BSA, Heat Shock, Fraction V-American Bio AB01088-00100) in PBST for 2 hours at 25° C. with moderate shaking. BSA was removed and plates were washed. Biotinylated ligands diluted in PBSTB (PBST+0.1% BSA) were then added (100 μl/well) and incubated for 1 hour at 25° C. with gentle shaking. Ligands were removed and plates were washed. Any remaining unoccupied neutravidin binding sites were blocked by adding 100 μM Biotin (Fisher BP232-1) (100 μl/well) and incubated for 1 hour at 25° C. with gentle shaking. Plates were then washed. […] Protein was removed and plates were washed. Streptavidin-HRP (Invitrogen 434323) diluted 1:5000 in PBSTB was added (100 μl/well) and incubated for 1 hour at 25° C. with gentle shaking. Wash plates. Substrate (Super Signal ELISA Pico Chemiluminescent Substrate-Thermo 37069) was added (100 μl/well) and plates were incubated for 5 minutes at 25° C. with gentle shaking. Luminescence was then measured on the Biotek Synergy H1 microplate reader.

[5] = Biotin ELISA, No Protein (Example 55); type: binding; details: three replicate values per compound
Protocol: as §6
(§7) Using similar methods as Examples 47 or 53, interactions with a number of receptors were measured. In some embodiments, “stock” is antibody only, and “control” is an antibody that went through the same procedure except using DMSO only as opposed to a compound. When contacted with targeting moieties such as antibodies in the Examples, compounds, e.g., I-95, I-96, etc. can react through their reactive groups

primary monocytes = experiment: ADCP assay using fresh primary monocytes; type: cell-based, human; details: beads loaded with test compound at 50 uM; 37C for 18 hrs
Protocol: as §2, §3, §4
PBMC, freshly isolated from whole blood (Bioreclamation IVT0) using Ficoll-Paque density centrifugation were resuspended in serum-free, supplemented RPMI at 2×10^6 cells/mL.
Ten milliliters of the resulting cell suspension was seeded into 75-cm^2 tissue culture flask (Denville Scientific TC9341) and incubated 2-3 hr at 37° C. 5% CO2 to allow cell adhesion. Following incubation, media was decanted and surface of the flask was carefully washed twice, each time with 10 ml serum-free, supplemented RPMI to remove any residual non-adherent cells. To remove adherent cells, 10 mL of ice-cold 2.5 mM EDTA/PBS solution was added for 10 min on ice. Cells were transferred to a 15-ml conical tube and centrifuge 10 min at 300×g, room temperature, to remove the EDTA/PBS solution. Monocytes were then resuspended in RPMI 10% FCS at 5×10^5 cells/mL to be used in ADCP assay. Monocyte purity was assessed by staining cells with antibodies to human CD3 FITC (Biolegend 300306), CD19 PeCy7 (Biolegend 302216), CD14 BV421 (BD Biosciences, 565283), and CD16 (Biolegend 302046).
as §5

CD16a158V [6] = biological target: T1, CD16a158V; experiment: Biotinylated Ligand ELISA Assay; type: binding; details: Biotinylated CD16a protein at 10 nM
Protocol: as §6

CD32a H167 = biological target: T3, CD32a H167 (Homo sapiens, UniProt P12318); experiment: Biotin ELISA, interaction with various receptors (Example 55); type: binding; details: three replicate values per compound
T3 sequence (P12318 36-218 limits assumed): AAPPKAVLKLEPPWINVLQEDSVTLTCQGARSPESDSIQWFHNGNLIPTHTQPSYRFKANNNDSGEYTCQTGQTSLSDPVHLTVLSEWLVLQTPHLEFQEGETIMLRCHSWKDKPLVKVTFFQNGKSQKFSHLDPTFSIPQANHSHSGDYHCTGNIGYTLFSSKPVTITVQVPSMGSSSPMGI
Protocol: as §6, §7

CD32b = biological target: T4, CD32b (Homo sapiens, UniProt P31994); experiment: as above; type: binding; details: three replicate values per compound
T4 sequence (P31994 43-310): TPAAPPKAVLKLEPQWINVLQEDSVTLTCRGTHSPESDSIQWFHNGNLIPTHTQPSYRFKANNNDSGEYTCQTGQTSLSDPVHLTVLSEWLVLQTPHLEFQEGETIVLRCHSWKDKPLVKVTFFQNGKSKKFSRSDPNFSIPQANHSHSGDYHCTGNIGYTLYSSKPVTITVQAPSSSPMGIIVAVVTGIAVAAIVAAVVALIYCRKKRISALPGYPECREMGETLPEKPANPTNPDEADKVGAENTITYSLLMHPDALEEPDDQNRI
Protocol: as §6, §7

CD32a-R167 = experiment: as above; type: binding; details: three replicate values per compound
Protocol: as §6, §7

CD16a158V [7] = biological target: T1, CD16a158V; experiment: as above; type: binding; details: three replicate values per compound
Protocol: as §6, §7

CD3ed = CD3ed (Homo sapiens, UniProt P04234+P07766); experiment: as above; type: binding; details: three replicate values per compound
Protocol: as §6, §7

CD16a158F [8] = biological target: T2, CD16a158F; experiment: as above; type: binding; details: three replicate values per compound
Protocol: as §6, §7

CD64 = CD64 (Homo sapiens, UniProt P12314); experiment: as above; type: binding; details: three replicate values per compound
Protocol: as §6, §7

CD3ed, sequence (P07766 23-126 limits assumed): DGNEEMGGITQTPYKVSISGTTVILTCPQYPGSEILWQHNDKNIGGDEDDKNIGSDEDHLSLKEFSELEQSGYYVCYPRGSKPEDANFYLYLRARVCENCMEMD
CD3ed, sequence (P04234 22-105 limits assumed): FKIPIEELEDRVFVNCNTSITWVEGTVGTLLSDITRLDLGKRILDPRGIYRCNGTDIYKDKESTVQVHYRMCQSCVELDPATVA
CD64, sequence (P12314 16-374): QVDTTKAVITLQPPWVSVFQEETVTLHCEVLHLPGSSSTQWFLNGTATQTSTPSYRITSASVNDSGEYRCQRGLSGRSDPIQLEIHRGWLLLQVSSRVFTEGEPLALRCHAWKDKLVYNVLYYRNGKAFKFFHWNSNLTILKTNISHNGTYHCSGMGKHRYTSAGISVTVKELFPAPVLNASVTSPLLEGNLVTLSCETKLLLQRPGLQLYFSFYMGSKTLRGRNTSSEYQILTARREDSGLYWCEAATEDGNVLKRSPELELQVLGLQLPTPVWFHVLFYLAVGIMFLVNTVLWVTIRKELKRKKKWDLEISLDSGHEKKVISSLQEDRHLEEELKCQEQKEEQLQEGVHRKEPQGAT
T2 sequence (P08637 17-208 limits assumed): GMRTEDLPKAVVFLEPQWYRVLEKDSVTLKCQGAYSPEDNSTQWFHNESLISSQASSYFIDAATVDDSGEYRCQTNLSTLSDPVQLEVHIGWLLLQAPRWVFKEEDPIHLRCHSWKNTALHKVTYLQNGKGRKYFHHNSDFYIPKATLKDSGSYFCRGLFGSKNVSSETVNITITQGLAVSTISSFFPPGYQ
T1 sequence (P08637 17-208 F176V): as the sequence (P08637 17-208 limits assumed) above, with F160V counted along it

Kd (CD16a158V [1]) [nM]	Kd (CD16a158F [2]) [nM]	Biotin ELISA Results CD32a-H167 (CD32a H167)	Biotin ELISA Results CD32b (CD32b)	Biotin ELISA Results CD32a-R167 (CD32a-R167)	Biotin ELISA Results CD16a-158V (CD16a158V [7])	Biotin ELISA Results CD3ed (CD3ed)	Biotin ELISA Results CD16a-158F (CD16a158F [8])	Biotin ELISA Results CD64 (CD64)	SMILES	ACDP (CD16a negative THP1 cells)-normalized phagocytosis score [3]	Biotinylated Ligand ELISA-CD16a158F Binding (RLU) (CD16a158F [4])	Biotin ELISA Results No Protein [5]	ACDP (primary monocytes)-normalized phagocytosis score (primary monocytes)	Biotinylated Ligand ELISA-CD16a158V Binding (RLU) (CD16a158V [6])
1 to 100		1138 and 43 and 249	98 and 1052 and 486	280 and −228 and −1215	−378 and −180 and −282	1016 and −29 and −4459	2154 and −1155 and −213	54153 and 79621 and 89966	O=C(CCCC[C@@H]1SC[C@@H]2NC(=O)N[C@@H]21)NCCOCCOCCOCCOCCOCCOCCOCCOCCn1cc(-c2ccc(NC(=O)C3CC(=O)N(c4ccccc4)C3)cc2)nn1 (stereo partly drawn) [Compound I-36]	B (a normalized phagocytosis score of 1.5-2.0)	C (a relative luminescence value (RLU) of 1,000-10,000)	−764 and −989 and −154	B (a normalized phagocytosis score of 1.5-2.0)	C (a relative luminescence value (RLU) of 1,000-10,000)
	> 1000								O=C(CCCC[C@@H]1SC[C@@H]2NC(=O)N[C@@H]21)NCCOCCOCCOCCOCCOCCOCCOCCOCCC(=O)N1CCC(N2CC(=O)N(c3ccccc3)C2=O)CC1 [Compound I-30]					
100 to 500									COc1ccc(OC)c(N2CC(C(=O)Nc3ccc(-c4cn(CCOCCOCCOCCOCCOCCOCCOCCOCCNC(=O)CCCC[C@@H]5SC[C@@H]6NC(=O)N[C@@H]65)nn4)cc3)CC2=O)c1 (stereo partly drawn) [Compound I-39]	B (a normalized phagocytosis score of 1.5-2.0)	C (a relative luminescence value (RLU) of 1,000-10,000)		B (a normalized phagocytosis score of 1.5-2.0)	C (a relative luminescence value (RLU) of 1,000-10,000)

More lines, now with the values behind:

SMILES	Kd (CD16a158V [1]) [nM]	Kd (CD16a158F [2]) [nM]	Biotin ELISA Results CD32a-H167 (CD32a H167)	Biotin ELISA Results CD32b (CD32b)	Biotin ELISA Results CD32a-R167 (CD32a-R167)	Biotin ELISA Results CD16a-158V (CD16a158V [7])	Biotin ELISA Results CD3ed (CD3ed)	Biotin ELISA Results CD16a-158F (CD16a158F [8])	Biotin ELISA Results CD64 (CD64)	ACDP (CD16a negative THP1 cells)-normalized phagocytosis score [3]	Biotinylated Ligand ELISA-CD16a158F Binding (RLU) (CD16a158F [4])	Biotin ELISA Results No Protein [5]	ACDP (primary monocytes)-normalized phagocytosis score (primary monocytes)	Biotinylated Ligand ELISA-CD16a158V Binding (RLU) (CD16a158V [6])
COc1ccc(OC)c(N2CC(C(=O)Nc3ccc(-c4cn(CCCC(=O)O)nn4)cc3)CC2=O)c1 (stereo not drawn) [Compound I-29]	100 to 500	100 to 500												
O=C(CCCC[C@@H]1SC[C@@H]2NC(=O)N[C@@H]21)NCCOCCOCCOCCOCCOCCOCCOCCOCCn1cc(-c2ccc(C(=O)N3CCC4(CC3)NC(=O)N(Cc3ccccc3)C4=O)cc2)nn1 [Compound I-28]		100 to 500									B (a relative luminescence value (RLU) of 10,000-100,000)			B (a relative luminescence value (RLU) of 10,000-100,000)
O=C(CCCC[C@@H]1SC[C@@H]2NC(=O)N[C@@H]21)NCCOCCOCCOCCOCCOCCOCCOCCOCCn1cc(-c2ccc(NC(=O)N3CCC4(CC3)NC(=O)N(Cc3ccccc3)C4=O)cc2)nn1 [Compound I-17, N-{4-[1-(26-{5-[(3aS,4S,6aR)-2-oxo-hexahydro-1H-thieno[3,4-d]imidazol-4-yl]pentanamido}-3,6,9,12,15,18,21,24-octaoxahexacosan-1-yl)-1H-1,2,3-triazol-4-yl]phenyl}-3-benzyl-2,4-dioxo-1,3,8-triazaspiro[4.5]decane-8-carboxamide]			1642 and 1978 and 2246	2439 and 955 and 1191	11182 and 5954 and 10675	443 and 2316 and 1591	1412 and 1083 and 1250	122 and 5830 and 2636	44623 and 46028 and 52372	B (a normalized phagocytosis score of 1.5-2.0)	D (a relative luminescence value (RLU) of 1-1,000)	−236 and −272 and 237	C (a normalized phagocytosis score of 1.0-1.5)	D (a relative luminescence value (RLU) of 1-1,000)
O=C(CCCC[C@@H]1SC[C@@H]2NC(=O)N[C@@H]21)NCCOCCOCCOCCOCCOCCOCCOCCOCCNC(=O)c1cnc(N2CCC3(CC2)NC(=O)C(Nc2ccccc2)C3=O)nc1 (stereo partly drawn) [Compound I-21]			15126 and 14461 and 15658	14249 and 14080 and 11349	12004 and 10942 and 9796	5747 and 5338 and 6303	8285 and 6369 and 7518	6775 and 6468 and 5831	98211 and 69008 and 131784	D (a normalized phagocytosis score of 0.5-1.0)	A (a relative luminescence value (RLU) of >100,000)	7902 and 6992 and 7029	C (a normalized phagocytosis score of 1.0-1.5)	A (a relative luminescence value (RLU) of >100,000)
